Results published in patent publication US8173689B2 (Novartis AG, priority 2006, dated 2012).

Key:
kinase domain of cKIT = target: T1, kinase domain of cKIT (Homo sapiens, UniProt P10721); assay: Inhibition of cKIT kinase signaling in an in vitro biochemical assay (alphascreen); conditions: tested at about 1 μM; for inhibition at 1 µM: read-out: cKit percent inhibition
T1 construct: The kinase domain of cKIT was assayed in 50 mM Hepes; purchased Upstate 14-559
Description: (§1) The IC50 values for the inhibition of RTKs were determined in the alphascreen format measuring the inhibition by compound of phosphate transfer to a substrate by the respective enzyme. Briefly, the respective RTK domain purchased as human recombinant protein (cKIT Upstate #14-559, PDGFRb Invitrogen #P3082) were incubated with serial dilutions of compound in the presence of substrate and ATP concentrations within 3 times the Km of the enzyme.
(§2) Alphascreen PY20 beads were added to the stopped cKIT reactions and PY20 Ab/Protein A Alphascreen beads were added to the PDGFRβ stopped reactions. Both reactions were incubated overnight and read on the Alphascreen reader.

[1] = target: T2, cytoplasmic domain of the human CSF-1R (Homo sapiens, UniProt P07333); assay: In vitro kinase assay for colony stimulating factor-1 receptor (AlphaScreen); assay type: biochemical; conditions: tested at about 1 μM; for inhibition at 1 µM: read-out: CSF-1R percent inhibition
T2 construct: Recombinant protein corresponding to the cytoplasmic domain of the human CSF-1R; purchased Invitrogen Corporation, Carlsbad, Calif; PV3249
T2 sequence (P07333 539-972 limits assumed): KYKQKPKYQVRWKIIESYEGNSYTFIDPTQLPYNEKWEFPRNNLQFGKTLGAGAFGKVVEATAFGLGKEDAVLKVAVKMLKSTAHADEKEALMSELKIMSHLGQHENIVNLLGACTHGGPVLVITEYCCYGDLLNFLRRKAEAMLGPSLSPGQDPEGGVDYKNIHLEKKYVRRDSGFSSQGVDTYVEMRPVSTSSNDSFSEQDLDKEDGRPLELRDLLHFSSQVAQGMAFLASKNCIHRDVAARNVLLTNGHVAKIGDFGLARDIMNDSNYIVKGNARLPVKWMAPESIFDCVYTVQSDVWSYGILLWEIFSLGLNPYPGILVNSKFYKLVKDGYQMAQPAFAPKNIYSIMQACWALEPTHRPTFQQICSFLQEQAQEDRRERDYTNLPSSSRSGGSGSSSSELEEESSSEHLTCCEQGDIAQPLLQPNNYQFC
Description: The kinase activity of various protein tyrosine kinases can be measured by providing ATP and a suitable peptide or protein tyrosine-containing substrate, and assaying the transfer of phosphate moiety to the tyrosine residue. Recombinant protein corresponding to the cytoplasmic domain of the human CSF-1R was purchased from Invitrogen Corporation, Carlsbad, Calif. U.S.A. (#PV3249). For each assay, test compounds were serially diluted, starting at 25 μM with 3 fold dilutions, in DMSO in 384 well plates then mixed with an appropriate kinase reaction buffer consisting of 50 mM Hepes, 5 mM MgCl2, 10 mM MnCl2, 0.1% BSA, pH 7.5, 1.0 mM dithiothreitol, 0.01% Tween 80 plus 1 μM ATP. […] Added to the stopped reaction mix was 30 μL of PT66 Alphascreen beads (Perkin Elmer, Boston, Mass., U.S.A.). The reaction was incubated overnight and read on the Envision (Perkin Elmer). Phosphorylated peptide product was measured with the AlphaScreen system (Perkin Elmer) using acceptor beads coated with anti-phosphotyrosine antibody PT66 and donor beads coated with streptavidin that emit a fluorescent signal at the 520-620 nm emission wave length if in close proximity.
CSF-1R kinase was added at final concentration of 4 nM.

kinase domain of PDGFRβ = target: T3, kinase domain of PDGFRβ (Homo sapiens, UniProt P09619); assay: Inhibition of PDGFRb kinase signaling in an in vitro biochemical assay (alphascreen); conditions: tested at about 1 μM; read-out: PDGFRβ percent inhibition
T3 construct: The kinase domain of PDGFRβ was assayed in 50 mM Hepes; purchased Invitrogen P3082
Description: as §1, §2

T1 sequence (P10721 589-937 limits assumed): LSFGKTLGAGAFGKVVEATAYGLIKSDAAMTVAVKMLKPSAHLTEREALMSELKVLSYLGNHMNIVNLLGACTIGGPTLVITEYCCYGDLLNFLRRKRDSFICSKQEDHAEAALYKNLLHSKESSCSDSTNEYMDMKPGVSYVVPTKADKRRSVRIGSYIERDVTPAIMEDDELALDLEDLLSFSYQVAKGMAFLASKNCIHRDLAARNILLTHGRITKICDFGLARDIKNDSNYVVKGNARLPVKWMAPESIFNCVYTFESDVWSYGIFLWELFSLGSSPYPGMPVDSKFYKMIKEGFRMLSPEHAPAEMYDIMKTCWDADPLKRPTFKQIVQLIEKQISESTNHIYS
T3 sequence (P09619 600-962 limits assumed): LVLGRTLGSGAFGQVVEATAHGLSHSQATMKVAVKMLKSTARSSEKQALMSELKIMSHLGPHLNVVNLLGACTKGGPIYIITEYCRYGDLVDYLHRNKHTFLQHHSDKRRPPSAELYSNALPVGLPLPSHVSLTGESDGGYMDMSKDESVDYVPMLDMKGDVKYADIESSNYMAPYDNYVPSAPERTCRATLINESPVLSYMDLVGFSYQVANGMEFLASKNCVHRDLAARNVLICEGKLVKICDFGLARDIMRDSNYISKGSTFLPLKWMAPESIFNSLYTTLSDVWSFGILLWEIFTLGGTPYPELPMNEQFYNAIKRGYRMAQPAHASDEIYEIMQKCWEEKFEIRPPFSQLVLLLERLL

inhibition at 1 µM (kinase domain of cKIT) [%] | inhibition at 1 µM [1] [%] | inhibition at 1 µM (kinase domain of PDGFRβ) [%] | Compound | cKit percent inhibition (kinase domain of cKIT; compounds of Table 4) [%] | CSF-1R percent inhibition ([1]; compounds of Table 4) [%]
12 | 63 | 9 | CNC(=O)c1cc(Oc2ccc3nc(NCC(C)C)oc3c2)ccn1 [Compound 99, 4-(2-Isobutylamino-benzooxazol-6-yloxy)-pyridine-2-carboxylic acid methylamide] | – | –
10 | 99 | 9 | CNC(=O)c1cc(Oc2ccc3nc(NC(C)(C)C)oc3c2)ccn1 [Compound 100, 4-(2-tert-Butylamino-benzo-oxazol-6-yloxy)-pyridine-2-carboxylic acid methylamide] | – | –
– | 67 | 10 | CNC(=O)c1cc(Oc2ccc3nc(N[C@H](C(=O)NC)c4ccccc4)oc3c2)ccn1 [Compound 39, 4-{2-[((S)-Methylcarbamoyl-phenyl-methyl)-amino]-benzooxazol-6-yloxy}-pyridine-2-carboxylic acid methylamide] | – | –
– | 79 | 16 | CNC(=O)c1cc(Oc2ccc3nc(N[C@@H](CO)c4ccccc4)oc3c2)ccn1 [Compound 37, 4-[2-((R)-2-Hydroxy-1-phenyl-ethylamino)-benzooxazol-6-yloxy]-pyridine-2-carboxylic acid methylamide] | – | –
– | 25 | 14 | CNC(=O)c1cc(Oc2ccc3nc(NC4CCOCC4)oc3c2)ccn1 [Compound 30, 4-[2-(Tetrahydro-pyran-4-yl-amino)-benzooxazol-6-yloxy]-pyridine-2-carboxylic acid methylamide] | – | –
– | 34 | 14 | CNC(=O)c1cc(Oc2ccc3nc(N[C@H](C(=O)O)c4ccccc4)oc3c2)ccn1 [Compound 38, (S)-[6-(2-Methylcarbamoyl-pyridin-4-yloxy)-benzooxazol-2-ylamino]-phenyl-acetic acid] | – | –
– | 15 | 0 | CNC(=O)c1cc(Oc2ccc3nc(N[C@@H](C)c4ccc5ccccc5c4)oc3c2)ccn1 [Compound 20, 4-[2-((S)-1-Naphthalen-2-yl-ethylamino)-benzooxazol-6-yloxy]-pyridine-2-carboxylic acid methylamide] | – | –
– | 85 | – | CNC(=O)c1cc(Oc2ccc3nc(NC(C)c4nccs4)oc3c2)ccn1 (stereo not drawn) [Compound 6, 4-[2-(1-Thiazol-2-yl-ethylamino)-benzooxazol-6-yloxy]-pyridine-2-carboxylic acid methylamide] | – | –
– | 50 | 0 | CNC(=O)c1cc(Oc2ccc3nc(NC4CCCC4)oc3c2)ccn1 [Compound 23, 4-(2-Cyclopentylamino-benzooxazol-6-yloxy)-pyridine-2-carboxylic acid methylamide] | – | –
– | 26 | 15 | CNC(=O)c1cc(Oc2ccc3nc(Nc4ccccc4CCN4CCCC4)oc3c2)ccn1 [Compound 43, 4-{2-[2-(2-Pyrrolidin-1-yl-ethyl)-phenylamino]-benzooxazol-6-yloxy}-pyridine-2-carboxylic acid methylamide] | – | –
– | 11 | 14 | CNC(=O)c1cc(Oc2ccc3nc(Nc4ccccc4-n4cnc(C)c4)oc3c2)ccn1 [Compound 45, 4-{2-[2-(4-Methyl-imidazol-1-yl)-phenylamino]-benzooxazol-6-yloxy}-pyridine-2-carboxylic acid methylamide] | – | –
– | – | – | 4-[2-(Benzo[1,3]dioxol-5-yl- amino)-benzooxazol-6- yloxy]-pyridine-2-carboxylic acid methylamide [Compound 95] | 42 | 100
– | 19 | 9 | CNC(=O)c1cc(Oc2ccc3nc(N[C@@H](C(=O)O)c4ccccc4)oc3c2)ccn1 [Compound 35, (R)-[6-(2-Methylcarbamoyl-pyridin-4-yloxy)-benzooxazol-2-ylamino]-phenyl-acetic acid] | – | –
